Source: article PMC10786919, “Design-rules for stapled peptides with in vivo activity and their application to Mdm2/X antagonists” (Nature Communications, 2024)
Positions of bridges follow the written chain, without caps; N, C: chain ends. Non-standard residues stand in square brackets, D forms with d. Residues, ends and D or L forms follow the SMILES beside them. Lys(N3) = [N-]=[N+]=NCCCC[C@H](N)C(=O)O; R8 = C=CCCCCCC[C@@](C)(N)C(=O)O; Cba = N[C@@H](CC1CCC1)C(=O)O; S5 = C=CCCC[C@](C)(N)C(=O)O; βAla = NCCC(=O)O

Experiments:
human Mdm2 1–125 = molecular target: T1, human Mdm2 1–125 (Homo sapiens, UniProt Q00987); assay: Mdm2 binding by competitive fluorescence anisotropy assay (FP binding); details: Binding KD
T1 construct: GST (N); His6 (internal); TEV cleavage site (ENLYFQG) (internal); made in house; host or cells: BL21 (DE3) Rosetta T1R Escherichia coli

[1] = test system: p53 responsive β-lactamase reporter in HCT116 cells; assay: cells; type: cell-based; details: 0% FBS 4Hr; read-out: p53 reporter assay: EC50
Outline: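 Read-out used the ToxBLAzer Dual Screen for β-lactamase driven by a stably integrated p53-responsive reporter. Assay: 8000 HCT116 cells per well at 0.5% final DMSO. Reported numbers are geometric means over a minimum of three biological replicates.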

[2] = Lactate dehydrogenase (LDH) release assay; type: cell-based; details: 0% FBS 4Hr; read-out: LDH: Cytotoxicity assay: EC50
Outline: (§1)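 Membrane damage measured as lactate dehydrogenase release (CytoTox-ONE kit) from p53-responsive β-lactamase reporter HCT116 cells plated at 8000 per well. Final DMSO 0.5%; geometric mean reported from a minimum of three biological replicates.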

HCT116 cells = assay: Lactate dehydrogenase (LDH) release assay; type: cell-based; details: 0% FBS 4Hr
Outline: as §1

Ca Ski cell line = details: read-out: Cell Proliferation assay EC50; p53 Mut, Ca-Ski
Outline: (§2)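 Compound dilution series (10 points, 3-fold, 10 mM top stock in DMSO) tested on overnight-plated Ca Ski cells in RPMI1640/10% FBS and on blasticidin-selected p53RE-bla HCT-116 cells in McCoy's 5A; read-out was CellTiter-Glo 2.0 luminescence after room-temperature equilibration.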

[3] = test system: CellSensor p53RE-bla HCT-116 Cell Line; details: read-out: Cell Proliferation assay EC50; p53 WT, HCT116
Outline: as §2

T1 sequence (Q00987 with tags, fused parts or gaps): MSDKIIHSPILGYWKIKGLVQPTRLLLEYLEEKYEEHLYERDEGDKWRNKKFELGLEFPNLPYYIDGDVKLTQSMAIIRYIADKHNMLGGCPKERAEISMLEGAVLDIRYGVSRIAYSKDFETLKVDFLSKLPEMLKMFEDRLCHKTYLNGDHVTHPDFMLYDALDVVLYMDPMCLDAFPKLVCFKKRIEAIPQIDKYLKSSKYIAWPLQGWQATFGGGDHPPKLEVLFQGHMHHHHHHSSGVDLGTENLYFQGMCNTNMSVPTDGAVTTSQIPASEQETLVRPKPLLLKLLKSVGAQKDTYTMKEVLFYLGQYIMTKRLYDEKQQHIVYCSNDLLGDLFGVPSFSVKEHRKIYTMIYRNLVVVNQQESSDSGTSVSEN

## CC(=O)N[C@@H](CCCCN=[N+]=[N-])C(=O)NCCC(=O)N[C@@H](CC(N)=O)C(=O)N[C@H](C(=O)N[C@@H](Cc1ccccc1)C(=O)N[C@]1(C)CCCCCCC=CCCC[C@@](C)(C(=O)N[C@@H](CC(N)=O)C(=O)N[C@@H](CC(N)=O)C(=O)N[C@@H](CC(N)=O)C(N)=O)NC(=O)[C@H](CC2CCC2)NC(=O)[C@H](CCC(N)=O)NC(=O)[C@H](CC(N)=O)NC(=O)[C@H](Cc2c[nH]c3ccccc23)NC(=O)[C@H](Cc2ccc(O)cc2)NC(=O)[C@H](CC(N)=O)NC1=O)[C@@H](C)O [MP-359, azide-ATSP-7041 (L1N, E5N, A8N, S12N, A13N, A14N)] (Ac-[Lys(N3)][βAla]NTF[R8]NYWNQ[Cba][S5]NNN-NH2; staple 6-13)
Human Mdm2 1–125
  Kd: 0.015 µM
[1]
  EC50: 32.2 µM
[2]
  EC50: > 50.6 µM
HCT116 cells
  LDH: Cytotoxicity assay: % Effect: -2.842%
Ca Ski cell line
  EC50: > 49.8 µM
[3]
  EC50: 27.1 µM
